# From patent publication US20110028566A1, “COMPOSITIONS AND PRODUCTS CONTAINING CYCLOALIPHATIC DIOL ANTIMICROBIAL AGENTS AND METHODS OF USING THE COMPOSITIONS AND PRODUCTS” (EASTMAN CHEMICAL COMPANY, priority 2009, published 2011)
# Experiments:
# Assay in all cases: Microbial challenge testing in BPW
# Assay type in all cases: cell-based
# Escherichia coli = system: Escherichia coli
# Experimental: (§1) The microorganisms used in challenge tests are given in Table 3, designated as either ATCC (American Type Culture Collection) or wild type. These wild type organisms were problematic organisms previously isolated from chemical products. In the description for each organism, the bacteria are indicated as either GN (Gram negative) or GP (Gram positive).
# (§2) All of the microorganisms were grown in Tryptose Soy Broth (TSB), DIFCO™ available from Becton, Dickinson and Company, containing 1% dextrose. Aspergillus niger and Candida albicans were incubated at 22° C.±2° C. for at least 96 hours. All bacteria were incubated at 35° C.±2° C. in a humidified incubator for at least 96 hours.
# (§3) The following procedure was followed to determine the amount of each challenge material (inoculum broth) required to produce a 10^8 cfu/mL challenge, which is equivalent to a final test-sample microbial concentration of 10^5 to 10^6 cfu (colony-forming units)/mL.
# (§4) Using a sterile serological pipette, 1 mL of the growth from each TSB culture was transferred into tubes containing 9 mL phosphate buffer (pH 7.2) and mixed thoroughly. This process was repeated to make serial 1:10 dilutions. Then 0.1 mL of each sample and dilution was inoculated onto agar plates to produce the equivalent of a further 1:10 dilution. C. albicans and A. niger were inoculated onto SDA and bacteria were inoculated onto Plate Count Agar (PCA), DIFCO™ available from Becton, Dickinson and Company. The 0.1 mL aliquots were evenly distributed on the plates using the spread-plate technique. The spread-plate technique is performed by spreading the aliquot over the entire plate surface using a sterile spreading rod while rotating the plate with a rotary auto-plater. After the inoculum was absorbed completely, each plate was inverted and incubated (fungi at 22° C.±2° C. and bacteria at 35° C.±2° C.).
# (§5) After incubation for at least 48 hours, colonies that had developed on the agar plates were counted and recorded with the corresponding dilution. If counting had to be delayed temporarily, plates were refrigerated, preferably no more than 24 hours, until they could be counted. The number of cfu/mL was determined by multiplying the count by the dilution factor for that particular plate.
# (§6) Turbidity in Nepholemetric Turbidity Units (NTU) was measured for each serial dilution using the HF-Micro 100 Model Turbidimeter. For each microorganism, the plate counts were compared to the turbidity readings.
# (§7) Control substrates (“broth alone”) were prepared for each microorganism separately in triplicate by adding 13.5 mL of BPW (pH 7.0) containing 1% (w/v) dextrose to each 20-mL glass tube; then adding 1.5 mL challenge material to produce a final concentration at time zero of 10^5 to 10^6 cfu/mL and a total volume of 15 mL.
# (§8) Test sample substrates were prepared containing each test material (1,4-CHDM, etc) or combination of test materials at the concentrations shown in Tables 5 and 6. Sample substrates were prepared in triplicate, except those substrates containing PE or CG which were prepared in duplicate. Substrates were prepared by adding BPW containing 1% (w/v) dextrose to each 20-mL glass tube, then adding the test material in the amount appropriate to achieve the desired weight/volume percent (g/100 mL) and to obtain a total volume of BPW with dextrose and test material of 13.5 mL. Then 1.5 mL challenge material was added to produce a final concentration at time zero of 10^5 to 10^6 cfu/mL of the respective organism and a total test sample substrate volume of 15 mL.
# (§9) After mixing, all challenged substrates were incubated at 35° C.±2° C. for 14 days and then at ambient room temperature.
# Proteus vulgaris = system: Proteus vulgaris
# Experimental: as §1, §2, §3, §4, §5, §6, §7, §8, §9
# Pseudomonas aeruginosa = system: Pseudomonas aeruginosa
# Experimental: as §1, §2, §3, §4, §5, §6, §7, §8, §9
# Staphylococcus aureus = system: Staphylococcus aureus
# Experimental: as §1, §2, §3, §4, §5, §6, §7, §8, §9
# [1] = system: Staphylococcus epidermidis
# Experimental: as §1, §2, §3, §4, §5, §6, §7, §8, §9
# Streptococcus mutans = system: Streptococcus mutans
# Experimental: as §1, §2, §3, §4, §5, §6, §7, §8, §9
smiles,measurement,setting,value
"OCC1CCCC(CO)C1 (centres unmarked) [1,3-CHDM]",Grade code E. coli,"Escherichia coli; 1.25%, 14 days incubation","4 (1001 to 10,000 colonies (thus 10,000 cfu/mL to 100,000 cfu/mL))"
same,Grade code E. coli,"Escherichia coli; 1.25%, 30 days incubation","4 (1001 to 10,000 colonies (thus 10,000 cfu/mL to 100,000 cfu/mL))"
same,Grade code E. coli,"Escherichia coli; 2.5%, 3 days incubation","5 (More than 10,000 colonies estimated (thus >100,000 cfu/mL))"
same,Grade code E. coli,"Escherichia coli; 2.5%, 14 days incubation","4 (1001 to 10,000 colonies (thus 10,000 cfu/mL to 100,000 cfu/mL))"
same,Grade code E. coli,"Escherichia coli; 2.5%, 30 days incubation","4 (1001 to 10,000 colonies (thus 10,000 cfu/mL to 100,000 cfu/mL))"
same,Grade code P. vulqaris,"Proteus vulgaris; 0.5%, 3 days incubation","5 (More than 10,000 colonies estimated (thus >100,000 cfu/mL))"
same,Grade code P. vulqaris,"Proteus vulgaris; 0.5%, 13 days incubation","5 (More than 10,000 colonies estimated (thus >100,000 cfu/mL))"
same,Grade code P. vulqaris,"Proteus vulgaris; 0.5%, 30 days incubation","5 (More than 10,000 colonies estimated (thus >100,000 cfu/mL))"
same,Grade code P. vulqaris,"Proteus vulgaris; 1.25%, 3 days incubation","5 (More than 10,000 colonies estimated (thus >100,000 cfu/mL))"
same,Grade code P. vulqaris,"Proteus vulgaris; 1.25%, 13 days incubation","4 (1001 to 10,000 colonies (thus 10,000 cfu/mL to 100,000 cfu/mL))"
same,Grade code P. vulqaris,"Proteus vulgaris; 1.25%, 30 days incubation","4 (1001 to 10,000 colonies (thus 10,000 cfu/mL to 100,000 cfu/mL))"
same,Grade code P. aeruginosa,"Pseudomonas aeruginosa; 0.5%, 3 days incubation","5 (More than 10,000 colonies estimated (thus >100,000 cfu/mL))"
same,Grade code P. aeruginosa,"Pseudomonas aeruginosa; 0.5%, 13 days incubation","5 (More than 10,000 colonies estimated (thus >100,000 cfu/mL))"
same,Grade code P. aeruginosa,"Pseudomonas aeruginosa; 0.5%, 30 days incubation","5 (More than 10,000 colonies estimated (thus >100,000 cfu/mL))"
same,Grade code P. aeruginosa,"Pseudomonas aeruginosa; 1.25%, 3 days incubation","4 (1001 to 10,000 colonies (thus 10,000 cfu/mL to 100,000 cfu/mL))"
same,Grade code P. aeruginosa,"Pseudomonas aeruginosa; 1.25%, 13 days incubation","4 (1001 to 10,000 colonies (thus 10,000 cfu/mL to 100,000 cfu/mL))"
same,Grade code P. aeruginosa,"Pseudomonas aeruginosa; 1.25%, 30 days incubation","4 (1001 to 10,000 colonies (thus 10,000 cfu/mL to 100,000 cfu/mL))"
same,Grade code P. aeruginosa,"Pseudomonas aeruginosa; 2.5%, 3 days incubation","4 (1001 to 10,000 colonies (thus 10,000 cfu/mL to 100,000 cfu/mL))"
same,Grade code P. aeruginosa,"Pseudomonas aeruginosa; 2.5%, 13 days incubation","4 (1001 to 10,000 colonies (thus 10,000 cfu/mL to 100,000 cfu/mL))"
same,Grade code P. aeruginosa,"Pseudomonas aeruginosa; 2.5%, 30 days incubation","4 (1001 to 10,000 colonies (thus 10,000 cfu/mL to 100,000 cfu/mL))"
same,Grade code S. aureus,"Staphylococcus aureus; 0.5%, 3 days incubation","4 (1001 to 10,000 colonies (thus 10,000 cfu/mL to 100,000 cfu/mL))"
same,Grade code S. aureus,"Staphylococcus aureus; 0.5%, 14 days incubation","4 (1001 to 10,000 colonies (thus 10,000 cfu/mL to 100,000 cfu/mL))"
same,Grade code S. aureus,"Staphylococcus aureus; 0.5%, 30 days incubation","4 (1001 to 10,000 colonies (thus 10,000 cfu/mL to 100,000 cfu/mL))"
same,Grade code S. aureus,"Staphylococcus aureus; 1.25%, 3 days incubation","4 (1001 to 10,000 colonies (thus 10,000 cfu/mL to 100,000 cfu/mL))"
same,Grade code S. aureus,"Staphylococcus aureus; 1.25%, 14 days incubation","4 (1001 to 10,000 colonies (thus 10,000 cfu/mL to 100,000 cfu/mL))"
same,Grade code S. aureus,"Staphylococcus aureus; 1.25%, 30 days incubation","4 (1001 to 10,000 colonies (thus 10,000 cfu/mL to 100,000 cfu/mL))"
same,Grade code S. aureus,"Staphylococcus aureus; 2.5%, 3 days incubation","4 (1001 to 10,000 colonies (thus 10,000 cfu/mL to 100,000 cfu/mL))"
same,Grade code S. aureus,"Staphylococcus aureus; 2.5%, 14 days incubation","4 (1001 to 10,000 colonies (thus 10,000 cfu/mL to 100,000 cfu/mL))"
same,Grade code S. aureus,"Staphylococcus aureus; 2.5%, 30 days incubation","4 (1001 to 10,000 colonies (thus 10,000 cfu/mL to 100,000 cfu/mL))"
same,Grade code S. epidermidis,"[1]; 0.5%, 3 days incubation","4 (1001 to 10,000 colonies (thus 10,000 cfu/mL to 100,000 cfu/mL))"
same,Grade code S. epidermidis,"[1]; 0.5%, 13 days incubation","4 (1001 to 10,000 colonies (thus 10,000 cfu/mL to 100,000 cfu/mL))"
same,Grade code S. epidermidis,"[1]; 0.5%, 30 days incubation","4 (1001 to 10,000 colonies (thus 10,000 cfu/mL to 100,000 cfu/mL))"
same,Grade code S. epidermidis,"[1]; 1.25%, 3 days incubation","4 (1001 to 10,000 colonies (thus 10,000 cfu/mL to 100,000 cfu/mL))"
same,Grade code S. epidermidis,"[1]; 1.25%, 13 days incubation",3.7
same,Grade code S. epidermidis,"[1]; 1.25%, 30 days incubation","4 (1001 to 10,000 colonies (thus 10,000 cfu/mL to 100,000 cfu/mL))"
same,Grade code S. epidermidis,"[1]; 2.5%, 3 days incubation","4 (1001 to 10,000 colonies (thus 10,000 cfu/mL to 100,000 cfu/mL))"
same,Grade code S. epidermidis,"[1]; 2.5%, 13 days incubation","3 (101 to 1000 colonies (thus 1000 to 10,000 cfu/mL))"
same,Grade code S. epidermidis,"[1]; 2.5%, 30 days incubation","4 (1001 to 10,000 colonies (thus 10,000 cfu/mL to 100,000 cfu/mL))"
same,Grade code S. mutans,"Streptococcus mutans; 0.5%, 3 days incubation","5 (More than 10,000 colonies estimated (thus >100,000 cfu/mL))"
same,Grade code S. mutans,"Streptococcus mutans; 0.5%, 13 days incubation","4 (1001 to 10,000 colonies (thus 10,000 cfu/mL to 100,000 cfu/mL))"
same,Grade code S. mutans,"Streptococcus mutans; 0.5%, 30 days incubation","4 (1001 to 10,000 colonies (thus 10,000 cfu/mL to 100,000 cfu/mL))"
same,Grade code S. mutans,"Streptococcus mutans; 1.25%, 3 days incubation","4 (1001 to 10,000 colonies (thus 10,000 cfu/mL to 100,000 cfu/mL))"
same,Grade code S. mutans,"Streptococcus mutans; 1.25%, 13 days incubation","4 (1001 to 10,000 colonies (thus 10,000 cfu/mL to 100,000 cfu/mL))"
same,Grade code S. mutans,"Streptococcus mutans; 1.25%, 30 days incubation","4 (1001 to 10,000 colonies (thus 10,000 cfu/mL to 100,000 cfu/mL))"
same,Grade code S. mutans,"Streptococcus mutans; 2.5%, 3 days incubation","4 (1001 to 10,000 colonies (thus 10,000 cfu/mL to 100,000 cfu/mL))"
same,Grade code S. mutans,"Streptococcus mutans; 2.5%, 13 days incubation","4 (1001 to 10,000 colonies (thus 10,000 cfu/mL to 100,000 cfu/mL))"
same,Grade code S. mutans,"Streptococcus mutans; 2.5%, 30 days incubation","4 (1001 to 10,000 colonies (thus 10,000 cfu/mL to 100,000 cfu/mL))"
